Measurements: patent publication US20220281831A1, “FUSED-GLUTARIMIDE CRBN LIGANDS AND USES THEREOF” (Kymera Therapeutics, Inc., priority 2019, published 2022)

Target: His-tagged CRBN-DDB1 complex (Homo sapiens, UniProt Q96SW2)
Assay: Time-Resolved Fluorescence Resonance Energy Transfer (TR-FRET / HTRF) CRBN binding assay, displacement of Cy5-labeled thalidomide
Details: His-CRBN-DDB1, Cy5-thalidomide 8 nM, 1 hour room temperature
Protocol: Time-Resolved Fluorescence Resonance Energy Transfer (TR-FRET) Assay.
Equal volumes of His-tagged CRBN-DDB1 complex (56 nM) was mixed with Eu-cryptate labeled Anti-6HIS-monoclonal antibody (50× dilution from the commercial stock solution, Vender: Cisbio, Cat. #61HI2KLA) in a final buffer containing 20 mM HEPES pH 7.0, 150 mM NaCl, 0.005% Tween-20. […] The mixture were incubated at room temperature for 1 hour. FRET signals were measured on an EnVision plate reader (Perkin Elmer) by exciting at 340 nm and recording emission at both 615 nm as no FRET control and 665 nm as the FRET signals with a 60 microsecond delay. FRET efficiency was calculated as the ratio of fluorescent signals at […]. Quantitative loss of FRET efficiency as a function of compound concentrations was fitted by a four-parameter Logistic Function using GraphPad Prism 7.0 and the IC50 values were reported for each compound.
The compound numbers correspond to the compound numbers in Table 1.

Chain of His-tagged CRBN-DDB1 complex (Q96SW2 whole entry): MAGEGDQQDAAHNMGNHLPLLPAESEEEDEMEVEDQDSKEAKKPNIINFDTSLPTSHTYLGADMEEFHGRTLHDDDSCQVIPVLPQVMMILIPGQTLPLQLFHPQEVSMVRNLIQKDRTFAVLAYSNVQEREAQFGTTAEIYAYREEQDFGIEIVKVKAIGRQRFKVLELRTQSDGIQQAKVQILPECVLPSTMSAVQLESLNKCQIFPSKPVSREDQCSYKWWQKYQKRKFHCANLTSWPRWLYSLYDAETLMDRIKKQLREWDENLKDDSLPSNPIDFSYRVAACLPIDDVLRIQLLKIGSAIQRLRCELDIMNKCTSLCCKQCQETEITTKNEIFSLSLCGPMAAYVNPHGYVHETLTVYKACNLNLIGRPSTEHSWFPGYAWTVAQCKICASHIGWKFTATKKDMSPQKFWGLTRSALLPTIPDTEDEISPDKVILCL
Chain of His-tagged CRBN-DDB1 complex (Q16531 whole entry partner): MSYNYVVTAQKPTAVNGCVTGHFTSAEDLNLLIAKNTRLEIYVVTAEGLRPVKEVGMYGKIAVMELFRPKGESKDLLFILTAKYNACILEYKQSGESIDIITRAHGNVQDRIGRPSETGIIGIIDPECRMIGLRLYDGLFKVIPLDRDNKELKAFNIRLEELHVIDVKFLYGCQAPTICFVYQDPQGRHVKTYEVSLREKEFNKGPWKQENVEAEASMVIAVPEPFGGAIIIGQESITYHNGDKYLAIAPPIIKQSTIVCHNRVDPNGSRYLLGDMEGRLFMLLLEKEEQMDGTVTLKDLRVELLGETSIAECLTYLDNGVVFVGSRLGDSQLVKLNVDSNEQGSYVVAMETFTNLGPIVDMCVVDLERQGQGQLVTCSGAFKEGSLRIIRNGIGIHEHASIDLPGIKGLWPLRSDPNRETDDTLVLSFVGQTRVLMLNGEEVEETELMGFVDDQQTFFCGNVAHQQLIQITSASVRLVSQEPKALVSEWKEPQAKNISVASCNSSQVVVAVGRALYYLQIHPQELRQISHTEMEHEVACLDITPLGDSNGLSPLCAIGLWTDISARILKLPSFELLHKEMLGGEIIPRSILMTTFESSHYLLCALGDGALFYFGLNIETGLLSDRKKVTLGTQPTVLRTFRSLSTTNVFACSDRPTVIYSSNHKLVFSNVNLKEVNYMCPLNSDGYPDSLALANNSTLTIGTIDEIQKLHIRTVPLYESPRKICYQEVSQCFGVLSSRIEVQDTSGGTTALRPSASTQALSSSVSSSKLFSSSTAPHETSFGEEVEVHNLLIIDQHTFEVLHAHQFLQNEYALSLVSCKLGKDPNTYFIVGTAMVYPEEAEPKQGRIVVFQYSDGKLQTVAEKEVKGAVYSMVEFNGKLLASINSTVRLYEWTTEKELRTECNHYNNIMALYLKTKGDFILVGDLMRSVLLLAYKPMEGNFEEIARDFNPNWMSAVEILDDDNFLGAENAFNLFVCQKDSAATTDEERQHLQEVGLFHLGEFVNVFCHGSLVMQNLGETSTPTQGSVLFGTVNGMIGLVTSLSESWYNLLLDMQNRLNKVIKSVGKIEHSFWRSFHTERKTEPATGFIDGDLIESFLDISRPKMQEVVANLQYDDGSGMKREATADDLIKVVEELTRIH

| SMILES | IC50 [µM] |
| --- | --- |
| O=C1CC2(CCN(C(=O)c3ccco3)CC2)CC(=O)N1 [Compound I-360] | > 100 |
| O=C1NC(=O)c2cc(Br)ccc21 [Compound I-28, 5-bromo-2H-isoindole-1,3-dione] | > 100 |
| O=C1NC(=O)[C@@H]2CN(c3ccc4c(c3)CCO4)C[C@H]12 [Compound I-156] | > 100 |
| O=C1NC(=O)[C@@H]2CN(Cc3ccc([N+](=O)[O-])s3)C[C@H]12 [Compound I-295] | 30 to 100 |
| O=C1NC(=O)[C@@H]2CN(C(=O)c3ccc4ccccc4c3)C[C@H]12 [Compound I-317] | 30 to 100 |
| O=C1CC2(CCN(c3cccc(O)c3)CC2)CC(=O)N1 [Compound I-97] | > 100 |
| O=C(O)c1cccc(N2C[C@@H]3C(=O)NC(=O)[C@@H]3C2)c1 [Compound I-143] | > 100 |
| O=C1CC2(CCNCC2)CC(=O)N1 [Compound I-372] | > 100 |
| CCCCOc1ccc(CN2C[C@@H]3C(=O)NC(=O)[C@@H]3C2)cc1 [Compound I-312] | > 100 |
| O=C1Cc2cccc(NCc3ccccc3)c2C(=O)N1 [Compound I-281] | < 10 |
| O=C1CC2(CCN(Cc3ccccc3)CC2)CC(=O)N1 [Compound I-374] | > 100 |
| Cc1ncoc1-c1ccc2c(c1)C(=O)NC2=O [Compound I-32, 5-(4-methyl-1,3-oxazol-5-yl)-2H-isoindole-1,3-dione] | > 100 |
| O=C1CC2(CCN(Cc3c[nH]c4ccccc34)CC2)CC(=O)N1 [Compound I-342] | > 100 |
| Cc1cc(C(=O)N2CCC3(CC2)CC(=O)NC(=O)C3)ccn1 [Compound I-340] | > 100 |
| O=C1CC2(CCN(C(=O)c3n[nH]c4ccccc34)CC2)CC(=O)N1 [Compound I-371] | > 100 |
| CC(C1CC1)N1C[C@@H]2C(=O)NC(=O)[C@@H]2C1 (stereo partly shown) [Compound I-282] | > 100 |
| Cc1ccccc1-c1ccc2c(c1)C(=O)NC2=O [Compound I-30, 5-(2-methylphenyl)-2H-isoindole-1,3-dione] | > 100 |
| Cc1cccc(C(=O)N2C[C@@H]3C(=O)NC(=O)[C@@H]3C2)c1 [Compound I-323] | > 100 |
| CC(C)(C)OC(=O)NCC#Cc1ccccc1Oc1cccc2c1C(=O)NC(=O)C2 [Compound I-212] | 30 to 100 |
| Cc1ccc(CN2C[C@@H]3C(=O)NC(=O)[C@@H]3C2)cc1 [Compound I-299] | > 100 |
| COc1ccc(C(=O)N2C[C@@H]3C(=O)NC(=O)[C@@H]3C2)cn1 [Compound I-324] | > 100 |
| O=C1CC2(CCN(c3ccc(Oc4ccccc4)cc3)CC2)CC(=O)N1 [Compound I-114] | 30 to 100 |
| O=C1CC2(CCN(C(=O)c3ccc4ccccc4c3)CC2)CC(=O)N1 [Compound I-368] | > 100 |
| O=C1NC(=O)[C@@H]2CN(C(=O)c3ccc(F)cc3)C[C@H]12 [Compound I-322] | > 100 |
| Cn1c(=O)[nH]c2cccc(Br)c2c1=O [Compound I-190] | > 100 |
| NC(=O)c1ccc(N2C[C@@H]3C(=O)NC(=O)[C@@H]3C2)cc1 [Compound I-154] | > 100 |
| CN1C(=O)C2(CC(=O)NC2=O)c2ccccc21 (stereo not shown) [Compound I-184] | > 100 |

| SMILES | IC50 [µM] |
| --- | --- |
| O=C1NC(=O)[C@@H]2CN(Cc3cccc4ccccc34)C[C@H]12 [Compound I-325] | > 100 |
| N#Cc1ccccc1N1C[C@@H]2C(=O)NC(=O)[C@@H]2C1 [Compound I-148] | > 100 |
| O=C1NC(=O)[C@@H]2CN(C3CCC3)C[C@H]12 [Compound I-163] | > 100 |
| O=C1NC(=O)[C@@H]2CN(C(=O)c3cc(C(F)(F)F)ccn3)C[C@H]12 [Compound I-166] | > 100 |
| O=C1NC(=O)[C@@H]2CN(Cc3c[nH]c4ccccc34)C[C@H]12 [Compound I-288] | > 100 |
| CCCCOc1ccc(CN2CCC3(CC2)CC(=O)NC(=O)C3)cc1 [Compound I-335] | > 100 |
| O=C1CC2(CCN(c3ccc(F)cc3)CC2)CC(=O)N1 [Compound I-92] | 30 to 100 |
| O=C1CC2(CCN(CCc3ccccc3)CC2)CC(=O)N1 [Compound I-357] | > 100 |
| O=C1NC(=O)[C@@H]2CN(C(=O)C3CC3)C[C@H]12 [Compound I-306] | > 100 |
| CC(=O)N1C[C@@H]2C(=O)NC(=O)[C@@H]2C1 [Compound I-284] | > 100 |
| O=C1NC(=O)[C@@H]2CN(c3cccc4cnccc34)C[C@H]12 [Compound I-141] | > 100 |
| Cn1c(=O)c2c(Br)cccc2n(C)c1=O [Compound I-192] | > 100 |
| O=C1CC2(CCN(c3ccc(OCc4ccccc4)cc3)CC2)CC(=O)N1 [Compound I-91] | > 100 |
| N#Cc1ccccc1N1CCC2(CC1)CC(=O)NC(=O)C2 [Compound I-111] | > 100 |
| O=CNc1ccccc1N1C[C@@H]2C(=O)NC(=O)[C@@H]2C1 [Compound I-172] | > 100 |
| O=C1NC(=O)[C@@H]2CN(c3ccc(F)cc3Cl)C[C@H]12 [Compound I-147] | > 100 |
| CC(=O)Nc1ccccc1N1C[C@@H]2C(=O)NC(=O)[C@@H]2C1 [Compound I-171] | > 100 |
| O=C1CC2(CCN(c3ccccc3Cl)CC2)CC(=O)N1 [Compound I-115] | > 100 |
| O=C1CC2(CCN(Cc3cccc4ccccc34)CC2)CC(=O)N1 [Compound I-331] | > 100 |
| O=C1NC(=O)[C@@H]2CN(c3ccc(O)cc3)C[C@H]12 [Compound I-140] | > 100 |
| O=C1NC(=O)[C@@H]2CN(c3cccc4cccnc34)C[C@H]12 [Compound I-146] | > 100 |
| CC(C)(C)OC(=O)NCc1ccc(N2C[C@@H]3C(=O)NC(=O)[C@@H]3C2)cc1 [Compound I-145] | > 100 |
| O=C1CC2(CCN(C(=O)c3ccc4ccoc4c3)CC2)CC(=O)N1 [Compound I-361] | > 100 |
| O=C1CC2(CCN(Cc3cccc(O)c3)CC2)CC(=O)N1 [Compound I-347] | > 100 |
| COc1cc(F)ccc1N1CCC2(CC1)CC(=O)NC(=O)C2 [Compound I-87] | > 100 |
| O=C1CC2(CCN(c3ccc(C(=O)NC4CC4)cc3)CC2)CC(=O)N1 [Compound I-90] | > 100 |
| O=C1NC(=O)[C@@H]2CN(c3ccc(Br)cc3)C[C@H]12 [Compound I-123] | 30 to 100 |

| SMILES | IC50 [µM] |
| --- | --- |
| Cc1ccccc1-n1cc2c(n1)CC(=O)NC2=O [Compound I-35, 2-(2-methylphenyl)-5H,7H-pyrazolo[4,3-c]pyridine-4,6-dione] | > 100 |
| O=C1NC(=O)[C@@H]2CN(c3cccc(O)c3)C[C@H]12 [Compound I-134] | > 100 |
| CCCOc1ccc(N2C[C@@H]3C(=O)NC(=O)[C@@H]3C2)cc1 [Compound I-138] | > 100 |
| CC(C)c1ccccc1Oc1cccc2c1C(=O)NC(=O)C2 [Compound I-211, 8-(2-Isopropylphenoxy)-2,4-dihydroisoquinoline-1,3-dione] | < 10 |
| O=C1NC(=O)[C@@H]2CN(Cc3ccccc3)C[C@H]12 [Compound I-328] | > 100 |
| Cc1ncoc1C(=O)N1C[C@@H]2C(=O)NC(=O)[C@@H]2C1 [Compound I-309] | > 100 |
| COc1ccc(CN2C[C@@H]3C(=O)NC(=O)[C@@H]3C2)cn1 [Compound I-293] | > 100 |
| O=C1CC2(CCN(c3ccc(O)cc3)CC2)CC(=O)N1 [Compound I-103] | > 100 |
| CN(C)c1ccc(CN2C[C@@H]3C(=O)NC(=O)[C@@H]3C2)cc1 [Compound I-294] | > 100 |
| O=C1CC2(CCN(Cc3ccc[nH]3)CC2)CC(=O)N1 [Compound I-337] | > 100 |
| O=C1CC2(CCc3cc(Br)ccc32)C(=O)N1 (stereo not shown) [Compound I-377] | 30 to 100 |
| CC(C)Oc1cccc(N2CCC3(CC2)CC(=O)NC(=O)C3)c1 [Compound I-101] | > 100 |
| CN(Cc1ccccc1)C(=O)c1cccc2c1C(=O)NC(=O)C2 [Compound I-280] | 30 to 100 |
| O=C1NC(=O)[C@@H]2CN(c3ccc4c(c3)OCO4)C[C@H]12 [Compound I-157] | > 100 |
| O=C1CC2(Nc3ccccc3C2=O)C(=O)N1 (stereo not shown) [Compound I-195, 1H-spiro[indole-2,3′-pyrrolidine]-2′,3,5′-trione] | > 100 |
| O=C1Cc2cccc(Oc3ccccc3C(F)(F)F)c2C(=O)N1 [Compound I-210, 8-[2-(Trifluoromethyl)phenoxy]-2,4-dihydroisoquinoline-1,3-dione] | < 10 |
| N#Cc1cccc(N2C[C@@H]3C(=O)NC(=O)[C@@H]3C2)c1 [Compound I-179] | > 100 |
| O=C1NC(=O)[C@@H]2CN(C3Cc4ccccc4C3)C[C@H]12 [Compound I-289] | > 100 |
| CCCOc1ccc(N2CCC3(CC2)CC(=O)NC(=O)C3)cc1 [Compound I-95] | 30 to 100 |
| O=C1NC(=O)[C@@H]2CN(C(=O)c3ccc(O)cc3)C[C@H]12 [Compound I-291] | > 100 |
| COc1ccccc1C(=O)N1C[C@@H]2C(=O)NC(=O)[C@@H]2C1 [Compound I-182] | > 100 |
| O=C1NC(=O)[C@@H]2CN(c3cccc(F)c3)C[C@H]12 [Compound I-135] | > 100 |
| O=C1CC2(CCN(c3cccc(C(=O)O)c3)CC2)CC(=O)N1 [Compound I-106] | > 100 |
| COc1cccc(N2CCC3(CC2)CC(=O)NC(=O)C3)c1 [Compound I-88] | > 100 |
| O=C1CC2(CCN(C(=O)c3cncnc3)CC2)CC(=O)N1 [Compound I-366] | > 100 |
